Test results published in PMC5029711, “Functional characterization and anti-cancer action of the clinical phase II cardiac Na^+/K^+ ATPase inhibitor istaroxime: in vitro and in vivo properties and cross talk with the membrane androgen receptor” (Oncotarget, 2016).
pIC50: −log10 of the molar value.

Molecular target: T1, Na^+/K^+ ATPase
T1 construct: gene ATP1A1; enzyme isolated from porcine cerebral cortex
Assay: ATPase enzymatic activity assay (Sigma) with isolated porcine cerebral cortex enzyme
Assay type: biochemical, Sus scrofa

With `C[C@]12CCC(=NOCCN)C[C@@H]1C(=O)C[C@@H]1[C@@H]2CC[C@]2(C)C(=O)CC[C@@H]12` [istaroxime, (E, Z) 3-(2-aminoethoxyimino)-5α-androstane-6, 17-trione] the pIC50 was 6.39.
